Experiments:
Conditions in all cases: spray application
[1] = system: Brassica napus; test: In vivo analyses Part B: drought stress, appearance versus stressed control plants in categories; parameters: key: 0: no positive effect; +: slight positive effect; ++: clear positive effect; +++: strong positive effect
Protocol: (§1) Seeds of monocotyledonous and dicotyledonous crop plants were sown in sandy loam in plastic pots, covered with soil or sand and cultivated in a greenhouse under good growth conditions. The test plants are treated at the early leaf stage (BBCH10-BBCH13). To assure uniform water supply before commencement of stress, the potted plants were supplied with water by dam irrigation prior to substance application. The inventive compounds were first formulated as wettable powders (WP) or dissolved in a solvent mixture. The further dilution was effected with water supplemented with 0.2% wetting agent (e.g. agrotin). The finished spray liquor was sprayed onto the green parts of the plant at an equivalent water application rate of 600 l/ha. Substance application was followed immediately by stress treatment of the plants. Drought stress was induced by gradual drying out under the following conditions: “Day”: 14 hours with illumination at ˜26-30° C. “Night”: 10 hours without illumination at ˜18-20° C. The duration of the respective stress phases was guided mainly by the condition of the stressed control plants. It was ended (by re-irrigating and transfer to a greenhouse with good growth conditions) as soon as irreversible damage was observed on the stressed control plants. The end of the stress phase was followed by an about 4-7-day recovery phase, during which the plants were once again kept under good growth conditions in a greenhouse. The duration of the recovery phase was guided mainly by when the trial plants had attained a state which enabled visual scoring of potential effects, and was therefore variable. Once this juncture had been reached, the appearance of the plants treated with test substances was recorded in comparison to the stressed control plants by the following categories: • 0 no positive effect • + slight positive effect • ++ clear positive effect • +++ strong positive effect In order to rule out any influence on the effects observed by any fungicidal or insecticidal action of the test compounds, it was additionally ensured that the tests proceeded without fungal infection or insect infestation. The values reported in tables B-1 and B-2 below are mean values of the results from at least three repeats. Effects of selected compounds of the general formula (I) under drought stress according to the following tables B-1 and B-2: […]

[2] = system: Triticum aestivum; test: as above; parameters: key: 0: no positive effect; +: slight positive effect; ++: clear positive effect; +++: strong positive effect
Protocol: as §1

[3] = system: Triticum aestivum; test: In vivo analyses: drought stress, visual scoring of damage, efficacy EF
Protocol: (§2) Seeds of monocotyledonous and dicotyledonous crop plants were sown in sandy loam in wood-fiber or plastic pots, covered with soil or sand and cultivated in a greenhouse under good growth conditions. The trial plants were treated at the early leaf stage (BBCH10-BBCH13). To assure uniform water supply before commencement of stress, the potted plants were supplied with water by dam irrigation prior to substance application. The inventive compounds formulated in the form of wettable powders (WP) were sprayed onto the green parts of the plants as an aqueous suspension at an equivalent water application rate of 600 I/ha with addition of 0.2% wetting agent (e.g. agrotin). Substance application was followed immediately by stress treatment of the plants. For this purpose, the wood-fiber pots were transferred in plastic inserts in order to prevent them from subsequently drying out too quickly. Drought stress was induced by gradual drying out under the following conditions: “Day”: 14 hours with illumination at ˜26-30° C. “Night”: 10 hours without illumination at ˜18-20° C. The duration of the respective stress phases was guided mainly by the condition of the stressed control plants. It was ended (by re-irrigating and transfer to a greenhouse with good growth conditions) as soon as irreversible damage was observed on the stressed control plants. The end of the stress phase was followed by an about 4-7-day recovery phase, during which the plants were once again kept under good growth conditions in a greenhouse. The duration of the recovery phase was guided mainly by when the trial plants had attained a state which enabled visual scoring of potential effects, and is therefore variable. Once this juncture was reached, the intensities of damage were scored visually in comparison to untreated, unstressed controls of the same age. The damage intensity was at first assessed in percent. These values were then used to calculate the efficacy of the test compounds by the following formula: [formula] EF: Efficacy DIs: Damage intensity of the stressed control plants DIt: Damage intensity of the stressed plants treated with test compound The values reported in tables A-1 to A-3 below are mean values from at least one trial with at least two repeats, showing the effects of selected compounds of the general formula (I) under drought stress on various crop plants.

[4] = system: Zea mays; test: as above
Protocol: as §2

[5] = system: Brassica napus; test: as above
Protocol: as §2

O=C(c1ccccc1C(F)(F)F)N(Cc1ccc(F)cc1F)N1CCCC1 [A2-15]
Effect (BRSNS) ([1]; 250 g/ha): + | Effect (TRZAS) ([2]; 250 g/ha): +

COc1c(C)cnc(CN(C(=O)c2ccccc2C(F)(F)F)N2CCCC2)c1C [A2-37]
EF [%] (TRZAS) ([3]; 250 g/ha): >5% | EF [%] (ZEAMX) ([4]; 25 g/ha): >5%

O=C(c1ccccc1C(F)(F)F)N(Cc1ccc2ccccc2n1)N1CCCC1 [A2-122]
EF [%] (BRSNS) ([5]; 250 g/ha): >5% | EF [%] (TRZAS) ([3]; 250 g/ha): >5% | EF [%] (ZEAMX) ([4]; 250 g/ha): >5%

COC1CCN(N(Cc2ccccn2)C(=O)c2ccccc2C(F)(F)F)C1 (stereo not shown) [A3-21, N-(3-Methoxypyrrolidin-1-yl)-N-(pyridin-2-ylmethyl)-2-(trifluoromethyl)benzamide]
EF [%] (ZEAMX) ([4]; 250 g/ha): >5%

O=C(c1ccc(Cl)c(Cl)c1)N(Cc1cc(Cl)ccc1Cl)N1CCCC1 [A5-6]
EF [%] (ZEAMX) ([4]; 250 g/ha): >5%

O=C(c1ccc(F)cc1C(F)(F)F)N(Cc1ccccc1Cl)N1CCCC1 [A6-1]
EF [%] (TRZAS) ([3]; 25 g/ha): >5% | EF [%] (ZEAMX) ([4]; 250 g/ha): >5%

COc1c(C)cnc(CN(C(=O)c2ccc(F)cc2C(F)(F)F)N2CCCC2)c1C [A6-37]
EF [%] (BRSNS) ([5]; 2.5 g/ha): >5%

O=C(c1ccccc1Cl)N(Cc1ccc(F)cc1F)N1CCCC1 [A7-15]
Effect (BRSNS) ([1]; 250 g/ha): + | Effect (TRZAS) ([2]; 25 g/ha): +

O=C(c1ccccc1Cl)N(Cc1ccc(Cl)nc1)N1CCCC1 [A7-94]
Effect (TRZAS) ([2]; 25 g/ha): +

O=C(c1ccc(Cl)cc1Cl)N(Cc1ccc(F)cc1F)N1CCCC1 [A8-15]
Effect (TRZAS) ([2]; 25 g/ha): +

COc1ccccc1C(=O)N(Cc1ccc(F)cc1F)N1CCCC1 [A9-15]
Effect (TRZAS) ([2]; 25 g/ha): +

CN1CCN(N(Cc2ccccc2Cl)C(=O)c2ccccc2C(F)(F)F)CC1 [A12-1]
Effect (TRZAS) ([2]; 250 g/ha): +

CN1CCN(N(Cc2ccccn2)C(=O)c2ccccc2C(F)(F)F)CC1 [A12-21, N—(N-Methylpyridazin-1-yl)-N-(pyridin-2-ylmethyl)-2-(trifluoromethyl)-benzamide]
Effect (BRSNS) ([1]; 250 g/ha): +

CN1CCN(N(Cc2nccc(Cl)c2Cl)C(=O)c2ccccc2C(F)(F)F)CC1 [A12-40]
Effect (BRSNS) ([1]; 250 g/ha): + | Effect (TRZAS) ([2]; 25 g/ha): +

COC1CCCN(N(Cc2ccccc2Cl)C(=O)c2ccccc2C(F)(F)F)C1 (stereo not shown) [A13-1]
Effect (BRSNS) ([1]; 250 g/ha): + | Effect (TRZAS) ([2]; 250 g/ha): +

COC1CCCN(N(Cc2ccccn2)C(=O)c2ccccc2C(F)(F)F)C1 (stereo not shown) [A13-21]
Effect (TRZAS) ([2]; 250 g/ha): +

COC1CCCN(N(Cc2nccc(Cl)c2Cl)C(=O)c2ccccc2C(F)(F)F)C1 (stereo not shown) [A13-40]
Effect (TRZAS) ([2]; 250 g/ha): +

COC1CCCN(N(Cc2ccccc2C#N)C(=O)c2ccccc2C(F)(F)F)C1 (stereo not shown) [A13-61]
Effect (BRSNS) ([1]; 25 g/ha): +

N#Cc1ccccc1CN(C(=O)c1cccc2nnsc12)N1CCCC1 [A14-61]
Effect (BRSNS) ([1]; 250 g/ha): + | Effect (TRZAS) ([2]; 25 g/ha): +

O=C(c1cnccc1C(F)(F)F)N(Cc1ccc(F)cc1F)N1CCCC1 [B2-15]
Effect (TRZAS) ([2]; 250 g/ha): +

O=C(c1cnccc1C(F)(F)F)N(Cc1ncc(C(F)(F)F)cc1Cl)N1CCCC1 [B2-36]
Effect (BRSNS) ([1]; 250 g/ha): + | Effect (TRZAS) ([2]; 25 g/ha): +

N#Cc1ccccc1CN(C(=O)c1cnccc1C(F)(F)F)N1CCCC1 [B2-61, N-(2-Cyanobenzyl)-N-(pyrrolidin-1-yl)-4-(trifluoromethyl)nicotinamide]
EF [%] (BRSNS) ([5]; 25 g/ha): >5% | EF [%] (TRZAS) ([3]; 25 g/ha): >5% | EF [%] (ZEAMX) ([4]; 250 g/ha): >5%

O=C(c1cnccc1C(F)(F)F)N(Cc1ccc(Cl)nc1)N1CCCC1 [B2-94]
Effect (TRZAS) ([2]; 25 g/ha): +

CC(c1ccc(F)cc1)N(C(=O)c1cnccc1C(F)(F)F)N1CCCC1 (stereo not shown) [B2-159]
Effect (BRSNS) ([1]; 250 g/ha): + | Effect (TRZAS) ([2]; 250 g/ha): +

O=C(c1cnccc1C(F)(F)F)N(Cc1ccccc1F)N1CCOCC1 [B5-11]
Effect (BRSNS) ([1]; 250 g/ha): +

O=C(c1cnccc1C(F)(F)F)N(Cc1ccccn1)N1CCOCC1 [B5-21]
Effect (BRSNS) ([1]; 250 g/ha): +

N#Cc1ccccc1CN(C(=O)c1cnccc1C(F)(F)F)N1CCOCC1 [B5-61, N-(2-Cyanobenzyl)-N-(morpholin-4-yl)-4-(trifluoromethyl)-nicotinamide]
Effect (BRSNS) ([1]; 250 g/ha): + | Effect (TRZAS) ([2]; 250 g/ha): +

CN1CCN(N(Cc2ccccc2Cl)C(=O)c2cnccc2C(F)(F)F)CC1 [B6-1]
Effect (TRZAS) ([2]; 250 g/ha): +

CN1CCN(N(Cc2ccccn2)C(=O)c2cnccc2C(F)(F)F)CC1 [B6-21]
Effect (BRSNS) ([1]; 250 g/ha): + | Effect (TRZAS) ([2]; 250 g/ha): +

CN1CCN(N(Cc2ccccc2C#N)C(=O)c2cnccc2C(F)(F)F)CC1 [B6-61]
Effect (TRZAS) ([2]; 250 g/ha): +

COC1CCCN(N(Cc2ccccc2Cl)C(=O)c2cnccc2C(F)(F)F)C1 (stereo not shown) [B7-1]
Effect (TRZAS) ([2]; 25 g/ha): ++

COC1CCCN(N(Cc2ccccn2)C(=O)c2cnccc2C(F)(F)F)C1 (stereo not shown) [B7-21]
Effect (BRSNS) ([1]; 25 g/ha): +

COC1CCCN(N(Cc2ccccc2C#N)C(=O)c2cnccc2C(F)(F)F)C1 (stereo not shown) [B7-61]
Effect (TRZAS) ([2]; 250 g/ha): +

N#Cc1ccccc1CN(C(=O)c1ccncc1)N1CCCCC1 [C4-61]
EF [%] (TRZAS) ([3]; 25 g/ha): >5% | EF [%] (ZEAMX) ([4]; 250 g/ha): >5%

CN1CCN(N(Cc2ccccc2C#N)C(=O)c2ccncc2)CC1 [C6-61]
EF [%] (BRSNS) ([5]; 2.5 g/ha): >5% | EF [%] (TRZAS) ([3]; 25 g/ha): >5%

O=C(c1ccncc1)N(Cc1ccccc1Cl)N1CCOCC1 [C7-1]
EF [%] (BRSNS) ([5]; 2.5 g/ha): >5%

COC1CCCN(N(Cc2cccc(Cl)c2)C(=O)c2ccncc2)C1 (stereo not shown) [C8-2]
EF [%] (BRSNS) ([5]; 250 g/ha): >5%

COC1CCCN(N(Cc2cccc(C#N)c2)C(=O)c2ccncc2)C1 (stereo not shown) [C8-62]
EF [%] (BRSNS) ([5]; 2.5 g/ha): >5% | EF [%] (ZEAMX) ([4]; 250 g/ha): >5%

N#Cc1ccccc1CN(C(=O)c1ccnnc1)N1CCCC1 [F1-61]
Effect (BRSNS) ([1]; 25 g/ha): + | Effect (TRZAS) ([2]; 100 g/ha): +

— patent US20180206491A1, “SUBSTITUTED CYCLIC ARYL AND HETEROARYL CARBOXYLIC ACID HYDRAZIDES OR SALTS THEREOF AND USE THEREOF TO INCREASE STRESS TOLERANCE IN PLANTS” (Bayer CropScience Aktiengesellschaft, priority 2015, published 2018)
